Data taken from the supplement of paper PMC10307832.

Legend:
Assay in all cases: relative viability (nuclei count vs DMSO), 5 days (fraction); higher = more cells survive
[1] = compound: CN(c1ncccc1CNc1nc(Nc2ccc3c(c2)CC(=O)N3)ncc1C(F)(F)F)S(C)(=O)=O
Method in brief: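 Acceptance criteria were a control CV below 25% and at least one doubling per plate. Lung cancer cell lines in 1536-well plates got five library-drug doses (not always all listed) √10 apart by pinning and were left 5 days with no medium change. Viability divides treated-well nuclei by vehicle-well nuclei and is the median across plates. Nuclei were counted by MetaXpress from 4× Hoechst images.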

[2] = compound: CN(c1ncccc1CNc1nc(Nc2ccc3c(c2)CC(=O)N3)ncc1C(F)(F)F)S(C)(=O)=O + CC(C)C[C@H](NC(=O)[C@H](Cc1ccccc1)NC(=O)c1cnccn1)B(O)O [Bortezomib] (partner 0.002 µM)
Method in brief: (§1)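 Lung cancer cell lines, seeded in 1536-well plates, were treated the following day by pin tool with a single drug or with five library-drug doses (not always all listed) in √10 steps on top of a fixed anchor-drug dose. Cells were fixed and nuclei stained in one step after 5 days, and nuclei were counted. Relative viability is the nuclei count for treated wells divided by that for vehicle wells, reported as medians of duplicate plates.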

[3] = compound: CN(c1ncccc1CNc1nc(Nc2ccc3c(c2)CC(=O)N3)ncc1C(F)(F)F)S(C)(=O)=O + CC1(C)CCC(c2ccc(Cl)cc2)=C(CN2CCN(c3ccc(C(=O)NS(=O)(=O)c4ccc(N[C@H](CCN5CCOCC5)CSc5ccccc5)c(S(=O)(=O)C(F)(F)F)c4)cc3)CC2)C1 [Navitoclax] (partner 0.5 µM)
Method in brief: as §1

[4] = compound: CN(c1ncccc1CNc1nc(Nc2ccc3c(c2)CC(=O)N3)ncc1C(F)(F)F)S(C)(=O)=O + COc1cc2c(Oc3ccc(NC(=O)C4(C(=O)Nc5ccc(F)cc5)CC4)cc3F)ccnc2cc1OCCCN1CCOCC1 [Foretinib] (partner 0.25 µM)
Method in brief: as §1

[5] = compound: CN(c1ncccc1CNc1nc(Nc2ccc3c(c2)CC(=O)N3)ncc1C(F)(F)F)S(C)(=O)=O + CS(=O)(=O)CCNCc1ccc(-c2ccc3ncnc(Nc4ccc(OCc5cccc(F)c5)c(Cl)c4)c3c2)o1 [Lapatinib] (partner 2 µM)
Method in brief: as §1

[6] = compound: CN(c1ncccc1CNc1nc(Nc2ccc3c(c2)CC(=O)N3)ncc1C(F)(F)F)S(C)(=O)=O + CS(=O)(=O)N1CCN(Cc2cc3nc(-c4cccc5[nH]ncc45)nc(N4CCOCC4)c3s2)CC1 [Pictilisib] (partner 1 µM)
Method in brief: as §1

[7] = compound: CN(c1ncccc1CNc1nc(Nc2ccc3c(c2)CC(=O)N3)ncc1C(F)(F)F)S(C)(=O)=O + C[C@@H](Oc1cc(-c2cnn(C3CCNCC3)c2)cnc1N)c1c(Cl)ccc(F)c1Cl [Crizotinib] (partner 1 µM)
Method in brief: as §1

[8] = compound: CN(c1ncccc1CNc1nc(Nc2ccc3c(c2)CC(=O)N3)ncc1C(F)(F)F)S(C)(=O)=O + C[C@]1(O)C[C@@H](c2nc(-c3ccc4ccc(-c5ccccc5)nc4c3)c3c(N)nccn32)C1 [Linsitinib] (partner 1 µM)
Method in brief: as §1

[9] = compound: CN(c1ncccc1CNc1nc(Nc2ccc3c(c2)CC(=O)N3)ncc1C(F)(F)F)S(C)(=O)=O + Cc1nc(NC(=O)N2CCC[C@H]2C(N)=O)sc1-c1ccnc(C(C)(C)C(F)(F)F)c1 [Alpelisib] (partner 2 µM)
Method in brief: as §1

[10] = compound: CN(c1ncccc1CNc1nc(Nc2ccc3c(c2)CC(=O)N3)ncc1C(F)(F)F)S(C)(=O)=O + O=C(c1cc(Cc2n[nH]c(=O)c3ccccc23)ccc1F)N1CCN(C(=O)C2CC2)CC1 [Olaparib] (partner 8 µM)
Method in brief: as §1

[11] = compound: CN(c1ncccc1CNc1nc(Nc2ccc3c(c2)CC(=O)N3)ncc1C(F)(F)F)S(C)(=O)=O + CCNC(=O)c1noc(-c2cc(C(C)C)c(O)cc2O)c1-c1ccc(CN2CCOCC2)cc1 [Luminespib] (partner 0.01 µM)
Method in brief: as §1

[12] = compound: CN(c1ncccc1CNc1nc(Nc2ccc3c(c2)CC(=O)N3)ncc1C(F)(F)F)S(C)(=O)=O + COc1cccc2cc(-c3nc([C@H]4CC[C@H](C(=O)O)CC4)n4ncnc(N)c34)[nH]c12 [OSI-027] (partner 0.5 µM)
Method in brief: as §1

[13] = compound: CN(c1ncccc1CNc1nc(Nc2ccc3c(c2)CC(=O)N3)ncc1C(F)(F)F)S(C)(=O)=O + Cc1cc(Nc2cc(N3CCN(C)CC3)nc(Sc3ccc(NC(=O)C4CC4)cc3)n2)n[nH]1 [Tozasertib] (partner 0.1 µM)
Method in brief: as §1

[14] = compound: CN(c1ncccc1CNc1nc(Nc2ccc3c(c2)CC(=O)N3)ncc1C(F)(F)F)S(C)(=O)=O + Cc1nc(Nc2ncc(C(=O)Nc3c(C)cccc3Cl)s2)cc(N2CCN(CCO)CC2)n1 [Dasatinib] (partner 0.075 µM)
Method in brief: as §1

[15] = compound: CN(c1ncccc1CNc1nc(Nc2ccc3c(c2)CC(=O)N3)ncc1C(F)(F)F)S(C)(=O)=O + N=C(N)NC(=N)NCCc1ccccc1 [Phenformin] (partner 250 µM)
Method in brief: as §1

## Calu-6
[1]; 0.01 µM
  relative viability: 1.06
[1]; 0.03162 µM
  relative viability: 0.99
[1]; 0.1 µM
  relative viability: 0.945
[1]; 0.3162 µM
  relative viability: 0.961
[1]; 1 µM
  relative viability: 0.863
[2]; first compound 0.01 µM
  relative viability: 1.04
[2]; first compound 0.03162 µM
  relative viability: 1.01
[2]; first compound 0.1 µM
  relative viability: 1.02
[2]; first compound 0.3162 µM
  relative viability: 0.958
[2]; first compound 1 µM
  relative viability: 0.874
[3]; first compound 0.01 µM
  relative viability: 0.848
[3]; first compound 0.03162 µM
  relative viability: 0.863
[3]; first compound 0.1 µM
  relative viability: 0.78
[3]; first compound 0.3162 µM
  relative viability: 0.777
[3]; first compound 1 µM
  relative viability: 0.772
[4]; first compound 0.01 µM
  relative viability: 0.936
[4]; first compound 0.03162 µM
  relative viability: 0.989
[4]; first compound 0.1 µM
  relative viability: 0.808
[4]; first compound 0.3162 µM
  relative viability: 0.955
[4]; first compound 1 µM
  relative viability: 0.812
[5]; first compound 0.01 µM
  relative viability: 1.05
[5]; first compound 0.03162 µM
  relative viability: 1.12
[5]; first compound 0.1 µM
  relative viability: 1
[5]; first compound 0.3162 µM
  relative viability: 1
[5]; first compound 1 µM
  relative viability: 0.912
[6]; first compound 0.01 µM
  relative viability: 0.926
[6]; first compound 0.03162 µM
  relative viability: 0.986
[6]; first compound 0.1 µM
  relative viability: 0.929
[6]; first compound 0.3162 µM
  relative viability: 0.874
[6]; first compound 1 µM
  relative viability: 0.845
[7]; first compound 0.01 µM
  relative viability: 0.809
[7]; first compound 0.03162 µM
  relative viability: 0.828
[7]; first compound 0.1 µM
  relative viability: 0.774
[7]; first compound 0.3162 µM
  relative viability: 0.725
[7]; first compound 1 µM
  relative viability: 0.546
[8]; first compound 0.01 µM
  relative viability: 1.05
[8]; first compound 0.03162 µM
  relative viability: 0.992
[8]; first compound 0.1 µM
  relative viability: 0.892
[8]; first compound 0.3162 µM
  relative viability: 0.955
[8]; first compound 1 µM
  relative viability: 0.914
[9]; first compound 0.01 µM
  relative viability: 0.914
[9]; first compound 0.03162 µM
  relative viability: 0.977
[9]; first compound 0.1 µM
  relative viability: 0.903
[9]; first compound 0.3162 µM
  relative viability: 1.55
[9]; first compound 1 µM
  relative viability: 0.765
[10]; first compound 0.01 µM
  relative viability: 0.581
[10]; first compound 0.03162 µM
  relative viability: 0.581
[10]; first compound 0.1 µM
  relative viability: 0.535
[10]; first compound 0.3162 µM
  relative viability: 0.498
[10]; first compound 1 µM
  relative viability: 0.453

## NCI-H1623
[1]; 0.01 µM
  relative viability: 0.733
[1]; 0.03162 µM
  relative viability: 1.07
[1]; 0.1 µM
  relative viability: 0.92
[1]; 0.3162 µM
  relative viability: 0.968
[1]; 1 µM
  relative viability: 0.963
[11]; first compound 0.03162 µM
  relative viability: 0.59
[11]; first compound 0.1 µM
  relative viability: 0.503
[11]; first compound 0.3162 µM
  relative viability: 0.514
[11]; first compound 1 µM
  relative viability: 0.429
[4]; first compound 0.01 µM
  relative viability: 0.798
[4]; first compound 0.03162 µM
  relative viability: 0.905
[4]; first compound 0.1 µM
  relative viability: 0.974
[4]; first compound 0.3162 µM
  relative viability: 0.882
[4]; first compound 1 µM
  relative viability: 0.826
[12]; first compound 0.01 µM
  relative viability: 0.418
[12]; first compound 0.03162 µM
  relative viability: 0.423
[12]; first compound 0.1 µM
  relative viability: 0.428
[12]; first compound 0.3162 µM
  relative viability: 0.435
[12]; first compound 1 µM
  relative viability: 0.462
[13]; first compound 0.03162 µM
  relative viability: 0.452
[13]; first compound 0.1 µM
  relative viability: 0.383
[13]; first compound 0.3162 µM
  relative viability: 0.447
[13]; first compound 1 µM
  relative viability: 0.428
[14]; first compound 0.03162 µM
  relative viability: 0.514
[14]; first compound 0.1 µM
  relative viability: 0.623
[14]; first compound 0.3162 µM
  relative viability: 0.51
[14]; first compound 1 µM
  relative viability: 0.528
[15]; first compound 0.03162 µM
  relative viability: 0.571
[15]; first compound 0.1 µM
  relative viability: 0.626
[15]; first compound 0.3162 µM
  relative viability: 0.568
[15]; first compound 1 µM
  relative viability: 0.593
